{"source": "paper PMC8802618", "about": "(ACS infectious diseases, 2021)", "key": {"[1]": {"system": "Chloroquine-Sensitive (NF54) strain of P. falciparum", "assay_type": "cell-based", "settings": "72 h [3H]-hypoxanthine incorporation; mean of two biological replicates"}, "[2]": {"system": "Chloroquine-Resistant (K1) strain of P. falciparum", "assay_type": "cell-based", "settings": "for IC50 K1: 72 h [3H]-hypoxanthine incorporation, mean of two biological replicates"}, "[3]": {"system": "Chloroquine-Sensitive (NF54) strain of P. falciparum", "settings": "parent compound; cited from earlier work"}, "[4]": {"system": "P. falciparum parasites harboring mutations in the Kelch protein, K13", "settings": "cited from earlier work"}, "[5]": {"system": "Chloroquine-Resistant (K1) strain of P. falciparum", "settings": "parent compound; cited from earlier work"}, "[6]": {"settings": "cited from earlier work"}, "[7]": {"settings": "single oral dose as low as 20 mg/kg; cited from earlier work"}, "[8]": {"settings": "cited from earlier work", "remark": "listed apart in the source"}}, "note": "Read-outs that look alike come from different tables or passages of the source.", "data": [{"compound": "[O-][N+]1(CCOc2ccc(C3CCC4(CC3)OOC3(O4)C4CC5CC3CC(O)(C5)C4)cc2)CCOCC1", "note": "(stereo not shown) [compound 11]", "values": [{"measurement": "IC50 NF54", "setting": "[1]", "result": ">100/>100 ng/mL"}, {"measurement": "IC50 K1", "setting": "[2]", "result": ">100/>100 ng/mL"}]}, {"compound": "c1cc([C@H]2CC[C@]3(CC2)OO[C@]2(O3)C3CC4CC(C3)CC2C4)ccc1OCCN1CCOCC1", "note": "[compound 2]", "values": [{"measurement": "IC50 NF54", "setting": "[3]", "result": 1.9, "unit": "ng/mL"}, {"measurement": "activity against K13 mutant parasites", "setting": "[4]", "result": "active"}, {"measurement": "IC50 K1", "setting": "[5]", "result": 1.6, "unit": "ng/mL"}, {"measurement": "safety", "setting": "[6]; up to a dose of 1600 mg", "result": "good safety properties"}, {"measurement": "cure rate", "setting": "[7]", "result": 100, "unit": "%"}]}, {"compound": "[O-][N+]1(CCOc2ccc(C3CCC4(CC3)OOC3(O4)C4CC5CC(C4)CC3C5)cc2)CCOCC1", "note": "(stereo not shown) [compound 8]", "values": [{"measurement": "relative area under the plasma concentration versus time curve (AUC) of metabolites", "setting": "[6]; human, in vivo", "result": "comparatively lower AUC values"}, {"measurement": "IC50 NF54", "setting": "[1]", "result": 2.3, "unit": "ng/mL"}, {"measurement": "IC50 K1", "setting": "[2]", "result": 1.4, "unit": "ng/mL"}, {"measurement": "in vitro activity against P. falciparum relative to parent 2", "setting": "[2]; K1 and NF54 strains, Table 1", "result": "comparable to 2"}]}, {"compound": "C[C@H]1[C@@H](O)O[C@@H]2O[C@@]3(C)CC[C@H]4[C@H](C)CC[C@@H]1[C@@]24OO3", "note": "[dihydroartemisinin]", "values": [{"measurement": "in vivo half-life", "setting": "[8]", "result": "~ 2 h"}]}, {"compound": "CC(C)(N)CNC(=O)C[C@H]1CC[C@]2(CC1)OO[C@]1(O2)C2CC3CC(C2)CC1C3", "note": "[Arterolane]", "values": [{"measurement": "in vivo half-life", "setting": "[8]; in vivo", "result": "2 to 4", "unit": "h"}]}]}
